From patent US5814612A, “Retinol derivatives and uses thereof” (priority 1992, dated 1998)
Entries after “also recorded” stand apart in the source; their conditions may differ. Like-named read-outs stand apart in the source and are kept apart here.

What was measured:
[1] = test system: 5/2 cells; test: Growth-supporting activity on 5/2 cells in serum-free ITLB medium; type: cell-based, human
Description: The assay was done in 96-well microtiter plates in a final volume of 200 ul/well. The cells were cultured for 72 hours and cell growth determined by [^3 H] thymidine (0.8 μCi/well)labeling for the last 16 hours. Retinoids were added at the indicated concentrations at the initiation of culture and every 24 hours thereafter.
5/2 cells were grown in the absence of retinol in a medium containing the basic RPMI 1640 amino acid/salt mixture, insulin (5 μg/ml), transferrin (5 μg/ml), albumin (0.1%) and linoleic acid (10^-6 M) (ITLB). […] The dose-response curve shown in FIG. 26 indicates an effective concentration of 10^-7 M.

[2] = test system: thymocytes; test: Proliferation of anti-CD3 activated thymocytes in serum-free ITLB medium; type: cell-based, BALB/c mouse; conditions: for effectiveness relative to retinol: anti-CD3, 14HRR at 12 hour intervals; for proliferative response of anti-CD3e activated thymocytes / growth kinetics over four days: retinol 3×10^-6 M, 14HRR 6×10^-7 M, human serum 3%; for growth kinetics over four days: 10^5 cells/well
Description: FIG. 14A: Purified BALB/c thymocytes were activated with immobilized anti-CD3e antibody and cultivated for four days in ITLB medium with or without retinol (3×10^-6 M), 14HRR (6×10^-7 M) (fresh 14HRR was added every 12 hours), human serum (3%) or FCS (10%) at the cellular densities shown. Proliferation was assayed by tritiated thymidine incorporation into cellular DNA.
FIG. 14B: BALB/c thymocytes (10^6 /ml) were added to microtiter plates coated with titrated amounts of anti-CD3e antibody with […] retinol or without, as indicated. Proliferation was measured in hexaduplicate wells on day 3 by ^3 H thymidine incorporation assay.
Purified thymocytes (5×10^5 cells/well) were stimulated by TCR crosslinking with immobilized anti-CD3e antibody (FIG. 15A) or 0.4 μg/ml Con A (FIG. 15B) in serum-free ITLB medium. The indicated amounts of retinoids were added either once at the beginning of the experiment (marked as "1×") or every 12 hours thereafter (marked as "6×"). DNA synthesis was measured after 72 hours by tritiated thymidine uptake as described.
Purified thymocytes (10^5 cells/well) were activated with anti-CD3 antibody in ITLB medium with or without retinol (3×10^-6 M), 14HRR (6×10^-7, added every 12 hours or human serum (3%)). DNA synthesis was measured daily by a 4 hour pulse of tritiated thymidine.
Thymocytes (5×10^4 /well) were activated by immobilized anti-CD3 mAb in medium ITLB. Retinol (2×10^-6 M) was added at initiation of culture, or delayed by 12 hours and 24 hours, respectively, or omitted altogether. ^3 H thymidine pulses of 4 hours were used to measure DNA synthesis of hexaduplicate wells.
Thymuses of 3 to 6-week-old BALB/c mice were teased in serum-free RPMI medium supplemented with 1% BSA, 10^-6 M linoleic acid and antibiotics. Depletion of accessory cells was achieved by two cycles of complement-dependent lysis with a mixture of anti-IA^d (5 μg/ml) and anti-IE^d (1:500 diluted ascites fluid). Briefly, cells were incubated on ice for 30 minutes with Ia antibodies, spun down, resuspended in 1:40 diluted rabbit complement, and incubated at 37° C. for 45 minutes. Incubations and two subsequent washes were carried out with RPMI medium containing 1% BSA. Cell viability was evaluated by trypan blue dye exclusion. To determine the extent of depletion of accessory cells, samples were stained with FITC-conjugated anti-Fc receptor antibody and analyzed by flow cytometry on a FACScan instrument (Becton Dickinson).
Cells were cultured in serum-free medium, referred to as ITLB, containing RPMI 1640 supplemented with 8×10^-7 M insulin (5 μg/ml), 7×10^-8 M transferrin (5 μg/ml), 2×10^-6 M linoleic acid, 2×10^-6 M delipidated BSA (0.12 mg/ml), 2 mM L-glutamine, 1 mM sodium pyruvate and antibiotics. They were seeded into 96-well flat-bottom plates at varying cellular densities in a final volume of 100 μl. In control experiments, cells were cultured in medium containing 10% FCS or 3% human serum and 5×10^-5 M 2ME. T cells and thymocytes were activated with immobilized, purified anti-mAb CD3e or by the addition of Con A in the presence or absence of different concentrations of retinoids. Unless indicated otherwise, retinoids were replenished every 12 hours to maintain a reasonably constant concentration of these labile compounds in culture. […] Cultures were carried out in duplicate. Plates were incubated at 37° C. in a humidified 5% CO2 atmosphere. Cellular proliferation was determined by [^3 H] thymidine uptake (0.5 uCi/well; New England Nuclear, Boston, Mass.) after the incubation times indicated for each experiment with a 4 hour labeling pulse.

[3] = test system: T cells; test: T cell activation and proliferation, retinol cofactor requirement; type: cell-based, murine
Description: They were seeded into 96-well flat-bottom plates at varying cellular densities in a final volume of 100 μl. In control experiments, cells were cultured in medium containing 10% FCS or 3% human serum and 5×10^-5 M 2ME. […] Cultures were carried out in duplicate. Plates were incubated at 37° C. in a humidified 5% CO2 atmosphere. Cellular proliferation was determined by [^3 H] thymidine uptake (0.5 uCi/well; New England Nuclear, Boston, Mass.) after the incubation times indicated for each experiment with a 4 hour labeling pulse. Cells were harvested onto glass filter and [^3 H]TdR incorporation was determined by liquid scintillation counting. The data presented are the means of duplicate or six replicate cultures. The restriction to duplicate measurements was necessary to conserve scarce 14HRR. […] Each experiment was repeated at least twice.

[4] = test system: activated human thymocytes; conditions: cited from earlier work

SMILES | restoration of proliferation in absence of retinol [1] | effectiveness relative to retinol [2] | dose optimum ([2]; provided at 12 hour intervals) | proliferative response of anti-CD3e activated thymocytes [2] | growth kinetics over four days [2] | effect of a single addition at start of culture ([2]; single addition) | ability to substitute for retinol in T cell activation (words) [3] | ability to substitute for retinol in T cell activation (words) ([3]; listed as retinoic acid) | support of growth of activated human thymocytes [4] | reduction of sufficient retinol concentration with repeated feeding ([2]; replenished twice daily, 3-day culture) | T cell activation in FCS-containing medium ([3]; FCS-containing medium, absence of APC)
CC(C=CC=C(C)C(O)CO)=CC=C1C(C)=CCCC1(C)C (stereo not shown) [14HRR, 14-hydroxy-4,14-retro-retinol] | restores the capacity to proliferate | as potent as retinol | 500 nM | vigorous responses were elicited | exponential growth | ineffective; also recorded: does not enable sustained proliferation; also recorded: insufficient to drive T cell proliferation | effectively supports T cell activation in conjunction with a mitogen in lieu of retinol; also recorded: capable of supporting activation and sustaining proliferation of T cells; also recorded: capable of supporting T cell activation and proliferation in the absence of any extraneous source of retinal | – | – | – | –
CC1=C(/C=C/C(C)=C/C=C/C(C)=C/C(=O)O)C(C)(C)CCC1 [all-trans retinoic acid] | – | completely inactive | – | – | – | – | – | cannot be satisfied by retinoic acid; also recorded: T lymphocytes neither respond to externally provided retinoic acid | The same is true for activated human thymocytes | – | –
CC1=C(/C=C/C(C)=C/C=C/C(C)=C/CO)C(C)(C)CCC1 [retinol, all-trans retinol] | restores the capacity to proliferate | – | – | vigorous responses were elicited | exponential growth | – | – | – | The same is true for activated human thymocytes | five- to ten-fold lower | no activation in the absence of APC, whether or not additional retinol is supplied
